Assay results reported in patent US20060111305A1, “Metabolites of certain [1,4]diazepino[6,7,1-ij]quinoline derivatives and methods of preparation and use thereof” (Wyeth, priority 2004, published 2006).
Values joined by “and” are separate entries in the source; they are usually repeats but may differ in a detail not shown here. Equal entries are not always repeated. Where two headings read alike, the source gives them in different places.

Test: Concentrations of DCDQ and DCDQ carbamoyl glucuronide (M6) in human plasma, LC/SRM (Table 34)
Assay type: in vivo, healthy human subjects
Conditions: plasma, plasma; for concentration at 6 h / concentration at 12 h / concentration at 24 h: human, oral, read-out: DCDQ concentration in plasma
Experimental: Drug administration and specimen collection were performed in a randomized, double-blinded, placebo-controlled, ascending single dose study of the safety, tolerability, pharmacokinetics, and pharmacodynamics of DCDQ administered orally to healthy subjects and subjects with schizophrenia and schizoaffective disorder. The specimens were stored at approximately −70° C. until analysis for metabolite profiles and for ratios of carbamoyl glucuronide (M6) to DCDQ.
Plasma samples from fasted subjects 25, 28 and 30 in the 50 mg single dose group, fasted subjects 50, 51, 54 in the 200 mg single dose group, fasted subjects 74, 76, 79 in the 300 mg single dose group, fed subjects 83, 84, 86 in the 300 mg single dose group and fasted subjects 92, 94, 96 in the 500 mg single dose group were analyzed for DCDQ carbamoyl glucuronide (M6) concentrations. The internal standard d8-DCDQ (25 μL of 200 ng/mL methanol solution) was added to 100 μL of the plasma samples, followed by the addition of 300 μL of acetonitrile. The samples were mixed and centrifuged at 14000 rpm in an Eppendorf 5415C centrifuge (Brinkman Instruments Inc., Westbury, N.Y.) for 10 minutes. The supernatant of each sample was transferred to a clean tube and evaporated to dryness under a stream of nitrogen in a TurboVap LV evaporator (Caliper Life Sciences, Hopkinton, Mass.). The residue was reconstituted with 50 μL of methanol followed by the addition of 150 μL of water. The sample was mixed and centrifuged as described above. The supernatant was analyzed by LC/MS/MS analysis. Samples for standard curves were prepared with control plasma spiked with synthetic M6. The concentrations of M6 used for the standard curve ranged from 0 to 2500 ng/mL plasma.
LC/MS System 3 was used for semi-quantitative analysis of metabolite M6 (DCDQ carbamoyl glucuronide) in plasma and urine samples. The HPLC equipment for this LC/MS System consisted of a Thermo Surveyor HPLC (Thermo Electron Corp., San Jose, Calif.), including a Surveyor MS pump and autosampler. Separations were accomplished on a 5 micron Phenomenex Luna C18(2) column, 150×2 mm (Phenomenex, Torrance, Calif.). The autosampler and column temperatures were set at 5° C. and 40° C., respectively. The HPLC mobile phase consisted of 10 mM ammonium acetate (A) and methanol (B), and was delivered at 0.2 mL/min. The linear mobile phase gradient (HPLC Gradient 2) is shown below. During LC/MS sample analysis, up to 3 min of the initial flow was diverted away from the mass spectrometer prior to evaluation of metabolites.
The mass spectrometer used for semi-quantitative anslysis with LC/MS System 3 was a Finnigan TSQ Quantum triple quadrupole mass spectrometer (Thermo Electron Corp.). The mass spectrometer was equipped with an electrospray interface and operated in the positive ionization mode. Settings for this mass spectrometer are listed below.
LC/MS/MS analysis in the selected reaction monitoring (SRM) mode (LC/SRM) was conducted for DCDQ and M6 using the following settings.
The computer program Microsoft Excel® 97 was used to calculate means and standard deviations and to perform the student t-test. Xcalibur (version 1.3) and MassLynx software (version 4.0) were used for collection and analysis of LC/MS data. Peak area ratios of M6 to the internal standard were used for quantitation of M6 in plasma samples.

**Q.** For `c1cc2c3c(c1)[C@H]1CCC[C@H]1CN3CCNC2` [DCDQ, (9aR,12aS)-4,5,6,7,9,9a,10,11,12,12a-decahydro-cyclopenta[c][1,4]diazepine[6,7,1-ij]quinoline, reference compound], which concentration at 6 h (50 mg, 50 mg (fasted), 6 hr, Mean ± S.D.) is on record?
**A.** 2.47 ± 2.21 ng/mL

**Q.** What about the concentration at 12 h (50 mg, 50 mg (fasted), 12 hr, Mean ± S.D.) of the same compound?
**A.** 1.2 ± 1.14 ng/mL

**Q.** And the concentration at 24 h (50 mg, 50 mg (fasted), 24 hr, Mean (standard deviation not calculated))?
**A.** 0.4 ng/mL

**Q.** And the concentration at 6 h (200 mg, 200 mg (fasted), 6 hr, Mean ± S.D.)?
**A.** 10.9 ± 7.71 ng/mL

**Q.** What about the concentration at 12 h (200 mg, 200 mg (fasted), 12 hr, Mean ± S.D.) of the same compound?
**A.** 5.6 ± 4.06 ng/mL

**Q.** What about the concentration at 24 h (200 mg, 200 mg (fasted), 24 hr, Mean ± S.D.) of the same compound?
**A.** 1.5 ± 1.15 ng/mL

**Q.** What about the concentration at 6 h (300 mg, 300 mg (fasted), 6 hr, Mean ± S.D.) of the same compound?
**A.** 7.45 ± 7.48 ng/mL

**Q.** What about the concentration at 12 h (300 mg, 300 mg (fasted), 12 hr, Mean ± S.D.) of the same compound?
**A.** 4.23 ± 3.26 ng/mL

**Q.** And the concentration at 24 h (300 mg, 300 mg (fasted), 24 hr, Mean ± S.D.)?
**A.** 1.46 ± 0.43 ng/mL

**Q.** And the concentration at 24 h (300 mg, 300 mg (fasted), 24 hr, individual subjects)?
**A.** 0.972 ng/mL

**Q.** What about the concentration at 6 h (300 mg, 300 mg (fed), 6 hr, Mean ± S.D.) of the same compound?
**A.** 12 ± 9.39 ng/mL

**Q.** And the concentration at 12 h (300 mg, 300 mg (fed), 12 hr, Mean ± S.D.)?
**A.** 8.31 ± 2.47 ng/mL

**Q.** And the concentration at 12 h (300 mg, 300 mg (fed), 12 hr, individual subjects)?
**A.** 10.9 ng/mL

**Q.** What about the concentration at 24 h (300 mg, 300 mg (fed), 24 hr, Mean ± S.D.) of the same compound?
**A.** 2.15 ± 0.86 ng/mL

**Q.** And the concentration at 6 h (500 mg, 500 mg (fasted), 6 hr, Mean ± S.D.)?
**A.** 32.1 ± 12.2 ng/mL

**Q.** And the concentration at 12 h (500 mg, 500 mg (fasted), 12 hr, Mean ± S.D.)?
**A.** 19.4 ± 6.56 ng/mL

**Q.** And the concentration at 24 h (500 mg, 500 mg (fasted), 24 hr, Mean ± S.D.)?
**A.** 5.45 ± 1.47 ng/mL

**Q.** What about the concentration at 24 h (500 mg, 500 mg (fasted), 24 hr, individual subjects) of the same compound?
**A.** 5.53 ng/mL

**Q.** What about the “DCDQ concentration in plasma” value (50 mg (fasted), 6 hr, individual subjects) of the same compound?
**A.** 0.9 ng/mL and 5.0 ng/mL

**Q.** And the “DCDQ concentration in plasma” value (50 mg (fasted), 12 hr, individual subjects)?
**A.** 0.7 ng/mL and 0.4 ng/mL and 2.5 ng/mL

**Q.** What about the “DCDQ concentration in plasma” value (50 mg (fasted), 24 hr, individual subjects) of the same compound?
**A.** 0.2 ng/mL and 0.6 ng/mL

**Q.** And the “DCDQ concentration in plasma” value (200 mg (fasted), 6 hr, individual subjects)?
**A.** 2.7 ng/mL and 18.0 ng/mL and 12.0 ng/mL

**Q.** What about the “DCDQ concentration in plasma” value (200 mg (fasted), 12 hr, individual subjects) of the same compound?
**A.** 1.2 ng/mL and 9.2 ng/mL and 6.4 ng/mL

**Q.** And the “DCDQ concentration in plasma” value (200 mg (fasted), 24 hr, individual subjects)?
**A.** 0.3 ng/mL and 2.6 ng/mL and 1.6 ng/mL

**Q.** And the “DCDQ concentration in plasma” value (300 mg (fasted), 6 hr, individual subjects)?
**A.** 2.09 ng/mL and 4.27 ng/mL and 16.0 ng/mL

**Q.** What about the “DCDQ concentration in plasma” value (300 mg (fasted), 12 hr, individual subjects) of the same compound?
**A.** 1.50 ng/mL and 3.34 ng/mL and 7.84 ng/mL

**Q.** What about the “DCDQ concentration in plasma” value (300 mg (fasted), 24 hr, individual subjects) of the same compound?
**A.** 1.72 ng/mL and 1.70 ng/mL

**Q.** And the “DCDQ concentration in plasma” value (300 mg (fed), 6 hr, individual subjects)?
**A.** 19.0 ng/mL and 15.6 ng/mL and 1.30 ng/mL

**Q.** What about the “DCDQ concentration in plasma” value (300 mg (fed), 12 hr, individual subjects) of the same compound?
**A.** 8.06 ng/mL and 5.97 ng/mL

**Q.** What about the “DCDQ concentration in plasma” value (300 mg (fed), 24 hr, individual subjects) of the same compound?
**A.** 2.60 ng/mL and 1.15 ng/mL and 2.69 ng/mL

**Q.** What about the “DCDQ concentration in plasma” value (500 mg (fasted), 6 hr, individual subjects) of the same compound?
**A.** 44.5 ng/mL and 31.7 ng/mL and 20.2 ng/mL

**Q.** What about the “DCDQ concentration in plasma” value (500 mg (fasted), 12 hr, individual subjects) of the same compound?
**A.** 24.5 ng/mL and 21.7 ng/mL and 12.0 ng/mL

**Q.** And the “DCDQ concentration in plasma” value (500 mg (fasted), 24 hr, individual subjects)?
**A.** 6.88 ng/mL and 3.95 ng/mL
